Laboratory results reported in US20250114473A1, “COMPOUND FOR CONJUGATION, CONJUGATE AND PHARMACEUTICAL COMPOSITION COMPRISING THE SAME” (priority 2023, published 2025).
Numbered stars: 1 amine (or outer) side, 2 acyl side, 3 side chain; on linkers, the order of the positions; unused ones are H or OH. Square brackets hold non-standard residues; d marks the D form. Peptide text beside a SMILES is read from it. * marks the point of attachment. Dolaproine = CO[C@@H]([C@@H]1CCCN1)[C@@H](C)C(=O)O; Dil = CC[C@H](C)[C@H](NC)[C@@H](CC(=O)O)OC; PABC = O=C(OCc1ccc(N[*:1])cc1)[*:2]; X1 = C[C@@H](N*)[C@@H](O)c1ccccc1; Cit = NC(=O)NCCC[C@H](N)C(=O)O; NMeV = CN[C@H](C(=O)O)C(C)C

Key:
[1] = Water solubility testing (dissolved with minimal DMSO, precipitated by addition of water); type: physicochemical; conditions: precipitated by addition of water to DMSO solution
Procedure: Briefly, the moiety-compound conjugates was dissolved with minimal DMSO and precipitated by the addition of water. […] However, Entry 5 and Entry 4 are conjugates with two-arm, with no PEG linker or two PEG4 linker, respectively, which were precipitated in 19.5% and 30.8% Water/DMSO. Thus, the results of water solubility of the conjugates are consistent with the inventors' hypothesis.

[2] = system: MCF-7 (HER2 1+); experiment: Anti-proliferation assay (CCK-8) of linker-drug combinations, drugs and cleaved products; type: cell-based
Procedure: (§1) Additionally, a series of experiments were conducted, including anti-proliferation assays for linker-drug combinations (i.e. the compounds in the present disclosure), the drugs thereof, and the cleaved products thereof after cleavage by the Cathepsin B enzyme in cells. These assays were performed using HER2-expressing cell lines. MCF-7 and SK-BR-3 cell lines were seeded at a density of 1.5×10^3 to 1×10^4 cells/well in 90 μL of the corresponding culture medium, and cultured at 37° C. in a CO2 incubator (Forma/ThermoFisher (370) or BINDER (CB130)) with a range of dilutions (0-1000 nM) of the compounds in the present disclosure, the drugs thereof, and the cleaved products thereof. Cell density for each sample was recorded by measuring the absorbance of Cell Counting Kit-8 (CCK-8) at 450 nm. Data analysis was performed using GraphPad Prism 8.0.1, and the best-fit four-parameter dose-response curve was selected. Half Maximal Inhibitory Concentration (IC50) values were determined via nonlinear regression; consistency between batches was assessed using One-way ANOVA. The relevant experimental results are detailed in Table 4. […] Such reduced toxicity of the linker-drug combinations (i.e, the compounds in the present disclosure) offers significant advantages in moiety-drug conjugate applications, including better biocompatibility, enhanced therapeutic efficacy, and greater dosing flexibility.

[3] = system: SK-BR-3 (HER2 3+); experiment: as above; type: cell-based; conditions: 0-1000 nM
Procedure: as §1

[4] = system: MCF-7 (HER2 1+); experiment: Cell toxicity testing of moiety-drug conjugates (CCK-8); type: cell-based
Procedure: (§2) The experiment involved optimizing seeding densities (1.5×10^3 to 1.5×10^4 cells/well) for each cell line (SK-BR-3, MCF-7, MDA-MB-231, MDA-MB-436) in 90 IL, of culture medium per well in a 96-well plate for 2-hour incubation. Next, 10 μL of a series of diluted ADC solutions (0-500 nM) were added to each well. The concentration of each ADC solution and measurements at four time points (24, 48, 72, and 96 hours) were conducted in triplicate. […] Data analysis was performed with GraphPad Prism 8.0.1, employing a four-parameter logistic curve-fit program.

[5] = system: SK-BR-3 (HER2 3+); experiment: as above; type: cell-based; conditions: 0-500 nM
Procedure: as §2

[6] = Plasma stability, released drug by LC-MS/MS; type: in vitro ADME; conditions: for free drug percentage: 13 days; for drug release trend: over a 13-day period
Description: To further advance the research, a set of the compounds in the present disclosure, FL-F21N-L111-P204 and FL-F21N-L106-P204, each containing single-arm and dual-arm respectively, was selected for plasma stability testing in both humans and rats. These were then compared in detail with commercially available Deruxtecan (Dxd) and VC-PAB-MMAE to evaluate their stability and safety in blood.
These calculations were based on standard drugs (e.g., Eribulin, MMAE, Dxd) and they were accurately measured using liquid chromatography-tandem mass spectrometry (LC-MS/MS). […] This trend provides an in-depth understanding of the drug release dynamics.
These experimental results provide crucial data supporting the efficacy and safety of the compounds in the present disclosure.

[7] = system: MDA-MB-436 (HER2−); experiment: Cell toxicity testing of moiety-drug conjugates (CCK-8); type: cell-based; conditions: 0-500 nM
Procedure: as §2

[8] = system: MDA-MB-231 (HER2−); experiment: as above; type: cell-based; conditions: 0-500 nM
Procedure: as §2

| Compound | Precipitation in % Water/DMSO [1] | IC50 ([2]; 0-1000 nM) | IC50 [3] | IC50 ([4]; 0-500 nM) | IC50 [5] | IC50 [7] | IC50 [8] | further results |
| --- | --- | --- | --- | --- | --- | --- | --- | --- |
| C=C1C[C@@H]2CC[C@@]34CC5O[C@H]6[C@@H](O3)[C@H]3O[C@H](CC[C@@H]3O[C@H]6C5O4)CC(=O)C[C@H]3C(C[C@H]4OC(CC[C@@H]1O2)C[C@@H](C)C4=C)O[C@H](C[C@H](O)CNC(=O)OCCOCCOCCOCCOCCOCCOCCOCCOCCOCCOCCOCCOCCOCCOCCOCCOCCOCCOCCOCCOCCOCCOCCOCCNC(=O)OCc1ccc(NC(=O)[C@H](CCCNC(N)=O)NC(=O)[C@@H](NC(=O)CCCCCN2C(=O)C=CC2=O)C(C)C)cc1)[C@@H]3OC (stereo partly drawn) [FL-F21N-L163-P204, Mal-Val-Cit-PEG24-Eribulin] | 38.9% | – | – | – | – | – | – | – |
| Mal-Val-Cit-PAB-(Eribulin)2 [FL-F21N-L107-P204] | 19.5% | 14.2 nM | 9.24 nM | – | – | – | – | – |
| Trastuzumab-Mal-Val-Cit-PAB-(Eribulin)2 [A701-L107-P204-D08] | – | – | – | 0.0229 nM | 0.0172 nM | – | – | – |
| Mal-Val-Cit-PAB-(PEG4-Eribulin)2 [FL-F21N-L106-P204] | 30.8% | 26.3 nM | 13 nM | – | – | – | – | free drug percentage ([6]; human plasma): 2.74%; drug release trend ([6]; human plasma): stable drug release trends; free drug percentage ([6]; rat plasma): 3.50%; drug release trend ([6]; rat plasma): stable drug release trends |
| Deruxtecan [L155-P209 (Deruxtecan), reference compound] | – | 512 nM | 432 nM | – | – | – | – | free drug percentage ([6]; human plasma): 5.19%; free drug percentage ([6]; rat plasma): 0.70% |
| C=C1C[C@@H]2CC[C@@]34CC5O[C@H]6[C@@H](O3)[C@H]3O[C@H](CC[C@@H]3O[C@H]6C5O4)CC(=O)C[C@H]3C(C[C@H]4OC(CC[C@@H]1O2)C[C@@H](C)C4=C)O[C@H](C[C@H](O)CNC(=O)OCCOCCOCCOCCOCCOCCOCCOCCOCCOCCOCCOCCNC(=O)OCc1ccc(NC(=O)[C@H](CCCNC(N)=O)NC(=O)[C@@H](NC(=O)CCCCCN2C(=O)C=CC2=O)C(C)C)cc1)[C@@H]3OC (stereo partly drawn) [FL-F21N-L162-P204, Mal-Val-Cit-PEG12-Eribulin] | 31.5% | – | – | – | – | – | – | – |
| Trastuzumab-Mal-Val-Cit-PAB-(PEG4-Eribulin)2 [A701-L106-P204-D08] | – | – | – | 0.0229 nM | 0.0216 nM | 14.6 nM | 75.2 nM | – |
| CC[C@H](C)[C@@H]([C@@H](CC(=O)N1CCC[C@H]1[C@H](OC)[C@@H](C)C(=O)N[C@H](C)[C@@H](O)c1ccccc1)OC)N(C)C(=O)[C@@H](NC(=O)[C@H](C(C)C)N(C)C(=O)OCc1ccc(NC(=O)[C@H](CCCNC(N)=O)NC(=O)[C@@H](N)C(C)C)cc1)C(C)C [VC-PAB-MMAE, reference compound] (H-V[Cit][PABC][NMeV]V[Dil][Dolaproine]-X1) | – | – | – | – | – | – | – | free drug percentage ([6]; human plasma): 0.56%; free drug percentage ([6]; rat plasma): 5.03% |
| C=C1C[C@@H]2CC[C@@]34C[C@H]5O[C@H]6[C@@H](O3)[C@H]3O[C@H](CC[C@@H]3O[C@H]6[C@H]5O4)CC(=O)C[C@@H]3[C@@H](OC)[C@@H](C[C@H](O)CN)O[C@H]3C[C@H]3O[C@@H](CC[C@@H]1O2)C[C@@H](C)C3=C [P204, Eribulin, reference compound] | – | – | – | – | – | – | – | IC50 ([7]; Homo sapiens): 1.28 nM; IC50 ([4]; Homo sapiens, MCF7, 0-500 nM): 0.337 nM; IC50 ([5]; Homo sapiens): 0.244 nM; IC50 ([8]; Homo sapiens): 2.07 nM; IC50 ([2]; Homo sapiens, MCF7, 0-1000 nM): 0.337 nM; IC50 ([3]; Homo sapiens): 0.244 nM |
| Dxd [P209, reference compound] | – | 9.53 nM | 5.51 nM | 9.53 nM | 5.51 nM | 5.12 nM | 135 nM | – |
| Trastuzumab-Mal-Val-Cit-PAB-PEG4-Eribulin [A701-L111-P204-D04] | – | – | – | 3.83 nM | 0.012 nM | > 250 nM | 148 nM | – |
| Trastuzumab-Mal-Val-Cit-PAB-PEG4-Eribulin [A701-L111-P204-D08] | – | – | – | 0.045 nM | 0.012 nM | 33 nM | > 250 nM | – |
| C=C1C[C@@H]2CC[C@@]34CC5O[C@H]6C(O3)[C@H]3O[C@H](CC[C@@H]3O[C@H]6[C@H]5O4)CC(=O)C[C@@H]3[C@@H](OC)[C@@H](C[C@H](O)CNC(=O)OCCOCCOCCOCCNC(=O)OCc4ccc(NC(=O)[C@H](CCCNC(N)=O)NC(=O)[C@@H](NC(=O)CCCCCN5C(=O)C=CC5=O)C(C)C)cc4)O[C@H]3CC3O[C@@H](CCC1O2)C[C@@H](C)C3=C [FL-F21N-L111-P204, Mal-Val-Cit-PAB-PEG4-Eribulin] | 24.5% | – | – | – | – | – | – | IC50 ([2]; Homo sapiens, MCF7, 0-1000 nM): 45.5 nM; IC50 ([3]; Homo sapiens): 30.8 nM; drug release trend ([6]; human plasma): stable drug release trends; drug release trend ([6]; rat plasma): stable drug release trends |
